Data on 4 compounds can be found in article PMC11512107, “Structural and biochemical analysis of ligand binding in yeast Niemann–Pick type C1–related protein” (Life Science Alliance, 2024).

Molecules are shown by their SMILES. Values joined by “and” are separate entries in the source; they are usually repeats but may differ in a detail not shown here. Equal values may be shown once.

On the set-up of series [1]: method as in PMID 19348755. Particulars: aggregated form; cited from earlier work.
Series [2] has as its target T1, NPC2 (Saccharomyces cerevisiae, UniProt Q12408).
T1 construct: residues 1–173, UniProt: Q12408; thrombin cleavage site (C); deca-histidine tag (C, cleaved yes); made in house; host or cells: Saccharomyces cerevisiae strain DSY-5
T1 sequence (Q12408 22-173): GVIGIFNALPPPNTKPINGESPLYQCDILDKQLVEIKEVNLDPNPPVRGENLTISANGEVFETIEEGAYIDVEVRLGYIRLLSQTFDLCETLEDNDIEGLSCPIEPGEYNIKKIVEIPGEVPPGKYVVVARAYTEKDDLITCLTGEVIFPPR
The experiment in a line: In vitro liposome crosslinking assay of pac-lipids with NPC2. It is filed as binding. Here is the method: To compare with the interaction profile of the NTD, crosslinking assays were also performed with purified, delipidated NPC2 (Fig S4A and B). […] NPC2 crosslinks well with all tested pac-lipids but, as for the NTD, most strongly with pacChol (+UV/−UV ratio = 1.91). Robust and consistent crosslinking with pacSph (+UV/−UV ratio = 1.64), pacCer (+UV/−UV = 1.67), and pacPC (+UV/−UV = 1.63) were observed. The crosslinking efficiency for cholesterol and sphingosine analogs was higher for the NTD, whereas crosslinking with ceramide and PC analogs seemed stronger with NPC2.
Lipids from stock vials were dissolved in chloroform and mixed at the desired molar ratio. For in vitro crosslinking, most liposomes consisted of 88.5 mol% DOPC as carrier lipid, 10 mol% DOPS, and 1.5 mol% respective pac-lipid. The pac-lipids were incorporated into liposomes at low concentrations (1.5 mol%) to ensure homogenous distribution and avoid micelle formation. The solvent was evaporated in a rotary evaporator (Hei-VAP Core, Heidolph) for 30 min at 42°C at 150 rpm to create a thin lipid film. Lipid films were hydrated with filtered and degassed PBS (137 mM NaCl, 2.7 mM KCl, 10 mM Na2HPO4, 1.8 mM KH2PO4, pH 7.4). Solutions of hydrated lipids (with a total lipid concentration of 2 mM) were subjected to five freeze–thaw cycles in liquid nitrogen and warm water (42°C) to facilitate breakup of large structures and support formation of smaller multilamellar vesicles. Lipid solutions were stored at −20°C. Before use, liposomes were extruded by passing 20x through a 100-nm pore size polycarbonate filter (Nuclepore; Whatman) using a hand extruder (Avanti Polar Lipids). Extruded liposomes were stored at 4°C, protected from light, and used within 1–2 d.
Extruded liposomes were diluted in PBS until a final lipid concentration of 60 μM, including 1 μM pac-lipid. Purified proteins were added until a final concentration of 1.5 μM in a reaction volume of 100 μl. Protein–liposome mixtures were incubated in 0.5-ml Eppendorf tubes for 30 min at 37°C at 400 rpm (Comfort thermomixer, Eppendorf), then crosslinked (or not) by exposure to 365-nm UV light for 15 min at 4°C using a 100-W mercury lamp (Blak-Ray B-100AP). After crosslinking, the click reaction was performed by adding 0.7 μl of freshly prepared click mix into the sample tubes. The final concentrations of click reagents in sample tubes were 80 μM CuSO4 (Merck), 3 μM TBTA (Merck), 3 μM AF647-picolyl azide (Jena Bioscience), and 80 μM ascorbic acid (Merck). Fresh stock of ascorbic acid solution in water was prepared every time and added to the click mix immediately before starting the click reaction. Click reactions were allowed to proceed for 2 h at 37°C at 400 rpm with the thermomixer. Then, samples were concentrated in a vacuum evaporator for 30 min set to 30°C and supplemented with 4x Lämmli buffer (250 mM Tris, pH 6.8, 9.2% SDS, 40% glycerol, 0.2% bromophenol blue, 100 mM DTT). Samples were boiled for 5 min at 95°C, and clicked protein–lipid complexes were resolved by SDS–PAGE. After extensive destaining in a destain solution (65% water, 25% isopropanol, and 10% acetic acid), the AF647 (a structural analog of Alexa Fluor 647) and Coomassie images were acquired using the LI-COR Odyssey imaging system. Data were evaluated by subtracting background fluorescence, followed by comparing the AF647 signal between crosslinked and non-crosslinked samples, normalized to protein loading based on Coomassie staining. The resulting values are described as +UV/−UV ratios. Statistics were calculated with the Mann–Whitney U test.

Series [3] addresses T2, NTD of NCR1 (Saccharomyces cerevisiae, UniProt Q12200).
T2 construct: residues 1–249, UniProt: Q12200; thrombin cleavage site (C); deca-histidine tag (C, cleaved yes); made in house; host or cells: Saccharomyces cerevisiae strain DSY-5
The experiment in a line: In vitro liposome crosslinking assay of pac-lipids with the NTD. In kind it is binding. The following applies: liposomes with 1.5 mol% pac-lipid (1 μM), 1.5 μM NTD, average ratio. The text has this:
In a parallel approach, the substrate scope of the NTD and NPC2 was probed with photo-activatable and clickable (pac) lipids. Pac-lipids contain small chemical modifications for click chemistry reactions, with fluorophores such as AF647 (a structural analog of Alexa Fluor 647), and for UV-activated photo-crosslinking, respectively ([45]). In contrast to NBD-tagged lipids delivered in solution, pac-lipids such as pac-cholesterol (pacChol), pac-phosphatidylcholine (pacPC), pac-sphingosine (pacSph), and pac-ceramide (pacCer) were reconstituted in liposomal membranes (Fig 5A and B). As expected, the delipidated NTD crosslinks with pacChol (average +UV/−UV ratio = 2.11). Crosslinking of the NTD with pacSph (+UV/−UV = 1.73) and, to a lesser extent, with pacCer and pacPC (+UV/−UV = 1.40 and 1.12), respectively, was also detected (Fig 5C and D).
Lipids from stock vials were dissolved in chloroform and mixed at the desired molar ratio. […]
Extruded liposomes were diluted in PBS until a final lipid concentration of 60 μM, including 1 μM pac-lipid. […] Data were evaluated by subtracting background fluorescence, followed by comparing the AF647 signal between crosslinked and non-crosslinked samples, normalized to protein loading based on Coomassie staining. […] Statistics were calculated with the Mann–Whitney U test.

For series [4], the target named is T2, NTD of NCR1. The experiment in a line: Competitive binding assays of edelfosine and NBD-Sph to the NTD. Particulars: 1 μM NBD-Sph, pH 7.5, read-out: apparent KD of NBD-Sph to the NTD. The text has this:
Edelfosine is a synthetic lysophospholipid with cytotoxic antifungal effects. […] To investigate this, two competitive binding assays with edelfosine and NBD-Sph were designed (Fig 4). For the first assay, the NTD was saturated by NBD-Sph and the addition of edelfosine led to the exchange of the NTD-bound substrate, causing a drop in NBD-Sph fluorescence by about 50% (Fig 4A). […] To further evaluate the capability of NBD-Sph to participate in micelle formation, each emission spectrum was normalized with varying concentrations of edelfosine (Fig 4B). […] The shift in the wavelength of the emission peaks indicates a change in the environment of the fluorophore ([48], [49], [50]), likely indicating the transition of NBD-Sph from being free in solution to being incorporated into mixed micelles with edelfosine. Initially, emission peaks at ∼530 nm are observed, assigned to be NTD and NBD-Sph complexes (Fig 4C). […] Similarly, for binding of substrates at higher concentrations than their CMC, this binding assay is rather complex because of edelfosine exceeding its CMC. […] Because of these restrictions, the inhibitory constant for edelfosine is referred to as apparent, rather than a real, inhibitor constant (KI).
Based on the above observations, fixed amounts of edelfosine were added to NBD-Sph before titrating with the NTD in the second assay (Fig 4D).
For measuring the ability of edelfosine to outcompete NBD-Sph, 1 μM NBD-Sph and 1 μM NTD were mixed to form the interaction complex before adding increasing amounts of edelfosine. As a control, edelfosine was titrated into a cuvette containing exclusively NBD-Sph in buffer. To measure the competitive binding between NBD-Sph and edelfosine, 1 μM NBD-lipid in Tris buffer was mixed with either 0.1, 0.5, or 0.7 μM edelfosine in the sample cuvette before titration with the NTD.
Before determination of dissociation constants, the measurements were normalized. The protein–lipid binding measurements were normalized to the highest intensity in each dataset. For the competition assay, the data were normalized to the lowest intensity in the dataset to be able to fit all data to Equation (1), the full model for one-site binding for the saturated fraction, f ([27]):(1) RL/Rt=Rt+KD+Lt-Rt+KD+Lt^2-4⋅Rt⋅Lt/2⋅Rt=f
To determine the dissociation constant of edelfosine (referred to as KI) in the competition assay, it can be assumed that the binding is simple and that all added ligand is bound. In this case, the IC50 can be used to calculate a KI using Equation (2) on normalized data:(2) KI=IC50⋅KD/KD+L
The KD is the dissociation constant of the ligand, [L] is the concentration, and IC50 is the concentration of the inhibitor, where half of the ligand is inhibited.

Series [5] has as its target T2, NTD of NCR1. The experiment in a line: Fluorescence binding assay of NBD-lipids titrated with the NTD. As to the method: (§1) To investigate substrate candidates for the NTD of NCR1 and NPC2, biochemical assays were conducted with purified protein and fluorescent lipid analogs. The purified, delipidated NTD was titrated into NBD-tagged phospholipids and sphingolipids, in which the fluorophore is attached to the hydrophobic tail of the lipid molecules. An increase in signal is based on an enhanced molecular brightness of the NBD-moiety upon binding in a more hydrophobic environment ([28]). This increase in fluorescence correlates with the concentration of the NTD (Fig 3A), which can be used to infer the affinity of the NTD to a given NBD-lipid (Fig 3B–G). […] The measured increase in fluorescence of each NBD-lipid upon titrating the protein was used to determine an apparent dissociation constant (KD) according to a one-site binding model (Equation (1)).
(§2) Fluorescence binding assays were conducted using NBD-PC, NBD-PS, NBD-Cer, and NBD-Sph (Avanti Polar Lipids), and NBD-PI (Prof. Bütikofer), dissolved in ethanol. […] NBD-lipids were excited at 460 nm, and the emission spectra were recorded within a range of 490–600 nm. […] Emission spectra for NBD-lipids were measured as a control and subtracted from the sample emission spectra. The control cuvette was measured every time the sample was measured to correct the data for bleaching of NBD-Sph. […]

Series [6] has as its target T1, NPC2. The experiment in a line: Fluorescence binding assay of NBD-lipids titrated with NPC2. Here is the method: as §1, §2
Series [7] is described as follows: CMC measurement of NBD-lipids by fluorescence. The following applies: MES buffer pH 5.5, fluorescence 460/530 nm. It is filed as physicochemical. Here is the method: The CMC of NBD-Sph was measured by adding increasing concentrations of NBD-Sph to a cuvette containing MES buffer. Between measurements, the solution was mixed and incubated for 10 min. The highest measured concentration of NBD-Sph was 30 μM.
To determine the CMC, the sigmoid curve was fitted and adjusted to the normalized data: f(x)=l/1+e^−k⋅(x−x0)+b (3)
Here, l is the scaling of the y-axis, x0 represents the CMC, k determines the sharpness of the fitted curve, and b is the starting position on the y-axis.

[8] abbreviates: 20 mol% ergosterol: 1 μM pac-lipid and 13 μM ergosterol.

As a reminder, the pKa is the negative logarithm of the acid dissociation constant.

T2 sequence (Q12200 20-249): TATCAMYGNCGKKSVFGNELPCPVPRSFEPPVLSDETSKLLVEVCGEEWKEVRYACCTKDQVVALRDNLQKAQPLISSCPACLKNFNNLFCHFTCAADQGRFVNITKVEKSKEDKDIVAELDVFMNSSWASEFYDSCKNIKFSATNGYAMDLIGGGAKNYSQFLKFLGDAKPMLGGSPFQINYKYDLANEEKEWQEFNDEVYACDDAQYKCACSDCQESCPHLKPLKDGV

For `CCCCCCCCCCCCC/C=C/[C@@H](O)[C@@H](N)CO` [sphingosine], the pKa in series [1] is recorded as 6.61.
On to `C#CCCCCOC(=O)CCC(C)C1CCC2C3CC4(N=N4)C4CC(O)CCC4(C)C3CCC12C` (stereo not drawn) [pacChol], for which the “+UV/−UV ratio (crosslinking with NPC2)” value at NPC2 [2] (liposomes with 1.5 mol% pac-lipid (1 μM), 1.5 μM NPC2) is recorded as 1.91. For the same compound, at NTD of NCR1 [3], the “+UV/−UV ratio (crosslinking with NTD)” value was found to be 2.11.
Consider `NC(CO)C(O)C=CCCCCCCCCCCCCCNc1ccc([N+](=O)[O-])c2nonc12` (stereo not drawn) [NBD-Sph], for which the Kd on NTD of NCR1 [4] (0.0 μM edelfosine) is 120 nM and ~120 nM; on NTD of NCR1 [4] (0.1 μM edelfosine), 120 ± 10 nM; on NTD of NCR1 [4] (0.5 μM edelfosine) it was 160 ± 60 nM; at NTD of NCR1 [4] (0.7 μM edelfosine) it was 210 nM and ~210 nM; on NTD of NCR1 [5] (pH 5.5, 1 μM NBD-lipid, values for NBD-PC, NBD-PS, NBD-Cer (marked °) are apparent KD, above CMC), ~250 nM and 250 nM; at NTD of NCR1 [5] (pH 7.5, 1 μM NBD-lipid), ~120 nM and 120 nM. The Kd on NPC2 [6] (pH 5.5, 1 μM NBD-lipid, values marked ° are apparent KD) was ~580 nM and 580 nM; on NPC2 [6] (pH 7.5, 1 μM NBD-lipid), ~530 nM and 530 nM. Also, the “critical micelle concentration (CMC)” value in series [7] was around 13 µM.
For `CC(C)[C@@H](C)/C=C/[C@@H](C)[C@H]1CC[C@H]2C3=CC=C4C[C@@H](O)CC[C@]4(C)[C@H]3CC[C@]12C` [Ergosterol, ergosterol], at NPC2 [2] (setting [8]), the “effect of ergosterol on NPC2 crosslinking with pacChol and pacPC” value is reported as “does not visibly influence”; the “effect of ergosterol on NPC2 crosslinking with pacSph and pacCer” value is on record as “trend toward increased crosslinking”. Also, the “effect of ergosterol on NPC2 crosslinking with pacSph and pacCer” value at NPC2 [2] (20 mol% ergosterol: 1 μM pac-lipid and 13 μM ergosterol, listed as ergosterol) is on record as “increased crosslinking”.
